Data as given in US20040005636A1, “Method for obtaining the binding affinities of a peptide library to a protein” (priority 2002, published 2004).
Where two headings read alike, the source gives them in different places. Ends that are not written are not given here. Peptide text beside a SMILES is read from it. * marks the point of attachment. Fluorescein(5-NHCOCH2) = O=C(C*)Nc1ccc2c(c1)C(=O)OC21c2ccc(O)cc2Oc2cc(O)ccc21

Legend:
[1] = target: T1, hTRβ-LBD (Homo sapiens, UniProt P10828); assay: Fluorescence polarization assay of coregulator peptide binding to TRβ-LBD; details: for Kd: TRβ-LBD with ligand T3, 10 nM fluorescent peptide, mean of 2 independent assays in quadruplicate, AL = assay limits, read-out: Observed Kd (dissociation constants for p160 peptides for TRβ)
T1 construct: The receptor ERα-LBD or TRβ-LBD, expressed using reported protocols; made in house
T1 sequence (P10828 217-461 limits assumed): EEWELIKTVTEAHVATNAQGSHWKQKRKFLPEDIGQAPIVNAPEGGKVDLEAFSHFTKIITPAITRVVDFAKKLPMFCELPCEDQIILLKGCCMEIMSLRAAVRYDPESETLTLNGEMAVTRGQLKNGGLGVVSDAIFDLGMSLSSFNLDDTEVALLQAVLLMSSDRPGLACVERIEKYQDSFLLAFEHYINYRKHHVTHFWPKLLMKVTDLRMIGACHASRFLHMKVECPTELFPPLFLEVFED
Method: (§1) The peptide library synthesized in Example 1 was assayed with ERα or TRβ receptor. Library members were kept at a constant concentration of 10 nM. A ligand was optionally added to the nuclear hormone receptor.
(§2) The receptor ERα-LBD or TRβ-LBD, expressed using reported protocols (for TR see, e.g., Darimont et al., Genes Dev., 12(21):3343-56, (1998); and for ER, see, e.g., Shiau et al., Cell, (1998), 95(7):927-937), was used. The concentration of protein varied between 0.001-20 μM in the following way. In 96 well plates, hTRβ-LBD or hERα-LBD was serially diluted from 40 μM to 0.002 μM in binding buffer (50 mM Sodium Phosphate, 150 mM NaCl, pH 7.2, 1 mM DTT, 1 mM EDTA, 0.01% NP40, 10% glycerol), containing 200 μM ligand (T3, for TRβ, or estradiol, diethylstilbestrol, genistein or tamoxifen for ERα).
(§3) Subsequently 10 μL of diluted protein was added to 10 μL of fluorescent coregulator peptide (20 nM) in 384-well plates yielding final protein concentrations of […] and 10 nM fluorescent peptide concentration. The samples were allowed to equilibriate for 30 minutes. Binding was then measured using fluorescence polarization (excitation λ at 485 nm, emission λ at 530 nm) on an Analyst AD (available from Molecular Devices).
One of the major potential perturbing phenomena in this assay is unexpected quenching or enhancement of fluorescence intensity. To control for this, both overall fluorescence intensity and fluorescence anisotropy for each sample were simultaneously monitored.
(§4) All experiments were carried out in quadruplicate, with each iteration containing the positive and negative controls, and 10-12 dose points. The data were then fit using Klotz plots to determine IC50 values using nonlinear regression analysis that fits the data to a modification of the model of Heyduk and Lee. (Heyduk et al., Proc. Natl. Acad. Sci., (1990), 1774; Heyduk et al., Nature, (1993), 364, 6437; Heyduk et al., Methods Enzymol., 274, 492. Further analysis was conducted using Hill and Scatchard plots to confirm number and homogeneity of binding sites as discussed hereinbelow.
FIGS. 1 to 3 illustrate the results of three different measurements of the binding affinity of selected members of the SRC peptide library to TRβ-LBD. FIG. 4 illustrates a Scatchard plot, which provides the Kd for the SRC2-2 peptide. FIG. 5 illustrates a Hill plot, which provides the Kd for the SRC2-2 peptide. Both the Scatchard and Hill plot correlate with the direct binding plots illustrated in FIGS. 1-3. The Scatchard data were best fit to a linear function, which indicates a single class of binding sites. The slope of the Hill plot is 1, which also indicates a single class of binding sites. Measured dissociation constants for binding of the SRC peptide library to TRβ are illustrated in Table 3. […]

[2] = target: T2, hERα-LBD (Homo sapiens, UniProt P03372); assay: Fluorescence polarization assay of coregulator peptide binding to ERα-LBD; details: ERα-LBD in the presence of estradiol; read-out: Dissociation constant for ERα, Estradiol
T2 construct: The receptor ERα-LBD or TRβ-LBD, expressed using reported protocols; made in house
T2 sequence (P03372 311-547 limits assumed): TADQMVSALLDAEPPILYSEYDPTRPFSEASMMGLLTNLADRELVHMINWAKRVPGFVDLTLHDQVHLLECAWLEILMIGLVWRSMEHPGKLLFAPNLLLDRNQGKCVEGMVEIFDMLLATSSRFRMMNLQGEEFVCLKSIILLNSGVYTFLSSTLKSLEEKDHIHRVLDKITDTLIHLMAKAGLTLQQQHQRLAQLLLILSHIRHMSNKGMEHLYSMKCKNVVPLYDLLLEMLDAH
Method: as §1, §2, §3, §4
FIG. 6 illustrates direct binding of SRC2-2 to ERα-LBD in the presence of the ligands estradiol, diethylstilbestrol and genistein. […] Measured dissociation constants for binding of members of the SRC peptide library to ERα, in the presence of 3 different ligands, are illustrated in Table 4 wherein the binding units are μM. Table 5 illustrates a comparison of binding constants (μM) for SRC peptides with the TRβ receptor in the presence of thyroid hormone T3, and the ERα receptor in the presence of estradiol.

[3] = target: T1, hTRβ-LBD; details: cited from earlier work
[4] = target: T3, hERα-LBD (ligand binding domain of estrogen receptor α) (human, UniProt P03372 297-554); assay: fluorescence polarization, labelled peptide 10 nM, hERα-LBD titrated, genistein present
T3 construct: Assayed with estradiol, diethylstilbestrol, genistein or tamoxifen present; the ligand is named under assay in each row
T3 sequence (looked up): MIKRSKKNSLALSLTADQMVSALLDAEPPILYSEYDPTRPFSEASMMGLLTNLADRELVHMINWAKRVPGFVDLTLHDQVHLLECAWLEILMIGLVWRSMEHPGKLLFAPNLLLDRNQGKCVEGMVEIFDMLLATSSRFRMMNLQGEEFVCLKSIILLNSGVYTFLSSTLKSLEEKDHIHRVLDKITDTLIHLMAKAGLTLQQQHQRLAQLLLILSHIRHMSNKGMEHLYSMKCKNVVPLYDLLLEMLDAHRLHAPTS
Method: (§5) The concentration of protein varied between 0.001-20 μM in the following way. In 96 well plates, hTRβ-LBD or hERα-LBD was serially diluted from 40 μM to 0.002 μM in binding buffer (50 mM Sodium Phosphate, 150 mM NaCl, pH 7.2, 1 mM DTT, 1 mM EDTA, 0.01% NP40, 10% glycerol), containing 200 μM ligand (T₃, for TRβ, or estradiol, diethylstilbestrol, genistein or tamoxifen for ERα).
as §3
as §4, with “IC₅₀” for “IC50”

[5] = target: T3, hERα-LBD (ligand binding domain of …); assay: fluorescence polarization, labelled peptide 10 nM, hERα-LBD titrated, diethylstilbestrol present
Method: as §5, §3
as §4, with “IC₅₀” for “IC50”

[6] = target: T4, hTRβ-LBD (ligand binding domain of thyroid hormone receptor β) (human, UniProt P10828 202-461); assay: fluorescence polarization, hTRβ-LBD titrated, T3 present; Table 3 prints ≧3 µM for this pair
T4 construct: Assayed with the small-molecule ligand T3 present
T4 sequence (looked up): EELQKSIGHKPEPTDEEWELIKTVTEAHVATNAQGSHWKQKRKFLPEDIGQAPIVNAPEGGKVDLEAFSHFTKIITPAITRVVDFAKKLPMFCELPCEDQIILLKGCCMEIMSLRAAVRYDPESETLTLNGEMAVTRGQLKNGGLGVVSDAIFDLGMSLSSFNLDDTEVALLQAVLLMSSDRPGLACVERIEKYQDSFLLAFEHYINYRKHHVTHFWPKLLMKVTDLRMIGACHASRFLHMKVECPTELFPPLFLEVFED
Method: as §5, §3
as §4, with “IC₅₀” for “IC50”

[7] = target: T3, hERα-LBD (ligand binding domain of …); assay: fluorescence polarization, labelled peptide 10 nM, hERα-LBD titrated, estradiol present
Method: as §5, §3
as §4, with “IC₅₀” for “IC50”

[8] = target: T4, hTRβ-LBD (ligand binding domain of …); assay: fluorescence polarization, fluorescein-labelled peptide 10 nM, hTRβ-LBD titrated, T3 present
Method: as §5, §3
as §4, with “IC₅₀” for “IC50”

[9] = target: T4, hTRβ-LBD (ligand binding domain of …); assay: fluorescence polarization, hTRβ-LBD titrated, T3 present; repeats Table 3
Method: as §5, §3
as §4, with “IC₅₀” for “IC50”

[10] = target: T3, hERα-LBD (ligand binding domain of …); assay: fluorescence polarization, hERα-LBD titrated, estradiol present; repeats Table 4
Method: as §5, §3
as §4, with “IC₅₀” for “IC50”

[11] = TRβ, Darimont et al., Genes & Dev. (1998) 12:3343, read-out: Published Results: Kd app

Molecule: CC[C@H](C)[C@H](NC(=O)[C@H](CCCCN)NC(=O)[C@H](Cc1c[nH]cn1)NC(=O)[C@H](CCCCN)NC(=O)[C@H](CCC(=O)O)NC(=O)[C@H](CCCCN)NC(=O)[C@H](CC(C)C)NC(=O)[C@@H](N)CSCC(=O)Nc1ccc2c(c1)C(=O)OC21c2ccc(O)cc2Oc2cc(O)ccc21)C(=O)N[C@@H](CC(C)C)C(=O)N[C@@H](Cc1c[nH]cn1)C(=O)N[C@@H](CCCNC(=N)N)C(=O)N[C@@H](CC(C)C)C(=O)N[C@@H](CC(C)C)C(=O)N[C@@H](CCC(N)=O)C(=O)N[C@@H](CC(=O)O)C(=O)N[C@@H](CO)C(=O)N[C@@H](CO)C(=O)N[C@@H](CO)C(=O)N1CCC[C@H]1C(=O)N[C@H](C(=O)O)C(C)C [SRC2-2]
- Kd [1]: 0.67 µM
- Kd [2]: 0.222 µM
- Kd [3, 11]: 0.8 µM
- Kd ([3]; hTRβ-LBD, reported value, read-out: Reported Kd): 1 µM

Molecule: CC(C)C[C@H](NC(=O)[C@H](C)NC(=O)[C@H](CC(N)=O)NC(=O)[C@H](CCC(=O)O)NC(=O)[C@H](CCCCN)NC(=O)[C@H](CCCCN)NC(=O)[C@H](CCCCN)NC(=O)[C@@H](N)CSCC(=O)Nc1ccc2c(c1)C(=O)OC21c2ccc(O)cc2Oc2cc(O)ccc21)C(=O)N[C@@H](CC(C)C)C(=O)N[C@@H](CCCNC(=N)N)C(=O)N[C@@H](Cc1ccc(O)cc1)C(=O)N[C@@H](CC(C)C)C(=O)N[C@@H](CC(C)C)C(=O)N[C@@H](CC(=O)O)C(=O)N[C@@H](CCCCN)C(=O)N[C@@H](CC(=O)O)C(=O)N[C@@H](CC(=O)O)C(=O)N[C@H](C(=O)N[C@@H](CCCCN)C(=O)N[C@@H](CC(=O)O)C(=O)O)[C@@H](C)O [SRC2-3]
- Kd [1]: ≥ 3 µM
- Kd [2]: 1.42 µM
- Kd [3, 11]: 3.2 µM

Molecule: CC(C)C[C@H](NC(=O)[C@H](CCCCN)NC(=O)[C@H](CCCCN)NC(=O)[C@H](Cc1c[nH]cn1)NC(=O)CNC(=O)[C@H](CCCCN)NC(=O)[C@H](CO)NC(=O)[C@H](CCC(=O)O)NC(=O)[C@@H](N)CSCC(=O)Nc1ccc2c(c1)C(=O)OC21c2ccc(O)cc2Oc2cc(O)ccc21)C(=O)N[C@@H](CC(C)C)C(=O)N[C@@H](CCC(N)=O)C(=O)N[C@@H](CC(C)C)C(=O)N[C@@H](CC(C)C)C(=O)N[C@H](C(=O)N[C@@H](CS)C(=O)N[C@@H](CO)C(=O)N[C@@H](CO)C(=O)N[C@@H](CC(=O)O)C(=O)N[C@@H](CC(=O)O)C(=O)N[C@@H](CCCNC(=N)N)C(=O)O)[C@@H](C)O [SRC3-1] (H-C(Fluorescein(5-NHCOCH2))ESKGHKKLLQLLTCSSDDR-OH; N-terminus assumed)
- Comparison of affinity for TRβ and ERα ([1]; Tables 3, 4 and 5): approximately the same affinity

Molecule: CC[C@H](C)[C@H](NC(=O)[C@H](CCCCN)NC(=O)[C@H](Cc1c[nH]cn1)NC(=O)[C@H](CCCNC(=N)N)NC(=O)[C@H](C)NC(=O)[C@@H](NC(=O)[C@H](CC(C)C)NC(=O)[C@@H](N)CSCC(=O)Nc1ccc2c(c1)C(=O)OC21c2ccc(O)cc2Oc2cc(O)ccc21)[C@@H](C)O)C(=O)N[C@@H](CC(C)C)C(=O)N[C@@H](Cc1c[nH]cn1)C(=O)N[C@@H](CCCNC(=N)N)C(=O)N[C@@H](CC(C)C)C(=O)N[C@@H](CC(C)C)C(=O)N[C@@H](CCC(N)=O)C(=O)N[C@@H](CCC(=O)O)C(=O)NCC(=O)N[C@@H](CO)C(=O)N1CCC[C@H]1C(=O)N[C@@H](CO)C(=O)N[C@@H](CC(=O)O)C(=O)O [SRC1-2]
- Kd [1]: 0.93 µM
- Kd [2]: 0.231 µM

Molecule: C(5‑iodoacetamidofluorescein)KKKENALLRYLLDKDDTKD [SRC2-3 coregulator peptide]
- Kd [4]: 2 µM
- Kd [5]: 0.786 µM
- Kd [6]: 3 µM

Molecule: C(5‑iodoacetamidofluorescein)ESKGHKKLLQLLTCSSDDR (The peptide has a second, internal Cys) [SRC3-1 coregulator peptide]
- Kd [4]: 0.25 µM
- Kd [7]: 0.16 µM
- Kd [8]: 0.87 µM
- Kd [5]: 1 µM
- Kd [9]: 0.87 µM
- Kd [10]: 0.16 µM
